ChEMBL document CHEMBL3763073 (Eur J Med Chem, 2016)

Key:
[1] = biological target: T1, Vasopressin V1a receptor (Homo sapiens, UniProt P37288); assay: Displacement of [3H]-vasopressin from human vasopressin 1a receptor expressed in HEK293 cells after 90 mins by microbeta 2 microplate-reader method; type: cell-based
[2] = biological target: T1, Vasopressin V1a receptor; assay: Agonist activity at human vasopressin 1a receptor expressed in HEK293 cells assessed as increase in IP1 accumulation preincubated for 1 hr followed by addition of Ab-Cryptate and IP1-d2 by HTRF assay; type: functional, cell-based
[3] = biological target: T2, Oxytocin receptor (Homo sapiens, UniProt P30559); assay: Agonist activity at human oxytocin receptor expressed in HEK293 cells assessed as increase in IP1 accumulation preincubated for 1 hr followed by addition of Ab-Cryptate and IP1-d2 by HTRF assay; type: functional, cell-based
T2 sequence (P30559 whole entry): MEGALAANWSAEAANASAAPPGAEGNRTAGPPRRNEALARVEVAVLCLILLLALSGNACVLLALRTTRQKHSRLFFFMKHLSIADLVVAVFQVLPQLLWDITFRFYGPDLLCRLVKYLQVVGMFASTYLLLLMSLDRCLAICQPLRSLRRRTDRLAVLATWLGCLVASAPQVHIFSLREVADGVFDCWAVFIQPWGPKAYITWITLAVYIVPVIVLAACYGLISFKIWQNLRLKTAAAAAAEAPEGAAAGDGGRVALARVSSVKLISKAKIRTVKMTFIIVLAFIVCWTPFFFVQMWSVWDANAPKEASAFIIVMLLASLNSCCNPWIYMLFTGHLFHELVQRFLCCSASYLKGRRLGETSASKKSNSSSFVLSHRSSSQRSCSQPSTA

[4] = biological target: T1, Vasopressin V1a receptor; assay: Antagonist activity at human vasopressin 1a receptor expressed in HEK293 cells assessed as inhibition of vasopressin induced IP1 accumulation pretreated for 30 mins measured 1 hr post Ab-Cryptate and IP1-d2 addition by HTRF assay; type: functional, cell-based
[5] = biological target: T2, Oxytocin receptor; assay: Antagonist activity at human oxytocin receptor expressed in HEK293 cells assessed as inhibition of oxytocin induced IP1 accumulation pretreated for 30 mins measured 1 hr post Ab-Cryptate and IP1-d2 addition by HTRF assay; type: functional, cell-based
[6] = biological target: T2, Oxytocin receptor; assay: Displacement of [3H]-oxytocin from human oxytocin receptor expressed in HEK293 cells after 90 mins by microbeta 2 microplate reader analysis; type: cell-based

T1 sequence (P37288 whole entry): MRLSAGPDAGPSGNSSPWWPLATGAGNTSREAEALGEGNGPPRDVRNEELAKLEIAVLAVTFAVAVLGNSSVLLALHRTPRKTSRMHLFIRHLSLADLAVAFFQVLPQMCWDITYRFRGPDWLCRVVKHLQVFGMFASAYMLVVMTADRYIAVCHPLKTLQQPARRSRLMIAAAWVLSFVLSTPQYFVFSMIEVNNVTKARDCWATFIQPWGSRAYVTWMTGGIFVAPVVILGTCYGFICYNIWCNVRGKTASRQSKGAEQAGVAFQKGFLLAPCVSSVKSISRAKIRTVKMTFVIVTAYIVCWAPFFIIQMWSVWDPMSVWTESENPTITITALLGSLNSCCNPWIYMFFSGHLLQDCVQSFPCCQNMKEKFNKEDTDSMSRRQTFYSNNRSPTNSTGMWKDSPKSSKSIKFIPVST

Row | SMILES | Ki [1] | EC50 [2] | EC50 [3] | IC50 [4] | IC50 [5] | Ki [6]
1 | COc1cc(CN2CCN(C(=O)NCc3ccc(C(=O)N4Cc5cnn(C)c5Nc5ccccc54)cc3C)CC2)cc(OC)c1 | 0.062 µM | > 10 µM | > 10 µM | 1.11 µM | 4.13 µM | 0.801 µM
2 | COc1cc(CN2CCN(CCCCCCC(=O)N3Cc4cnn(C)c4Nc4ccccc43)CC2)cc(OC)c1 | 0.195 µM | > 10 µM | > 10 µM | > 10 µM | > 10 µM | > 10 µM
3 | COc1cc(CN2CCN(CCCCC(=O)N3Cc4cnn(C)c4Nc4ccccc43)CC2)cc(OC)c1 | 0.409 µM | > 10 µM | > 10 µM | > 10 µM | > 10 µM | > 10 µM
4 | COc1cc(CN2CCN(CCCCCCCC(=O)N3Cc4cnn(C)c4Nc4ccccc43)CC2)cc(OC)c1 | 0.248 µM | > 10 µM | > 10 µM | 7.67 µM | > 10 µM | > 10 µM

Further lines, results first:

Row | Ki [1] | EC50 [2] | EC50 [3] | IC50 [4] | IC50 [5] | Ki [6] | SMILES
5 | 0.449 µM | > 10 µM | > 10 µM | > 10 µM | > 10 µM | > 10 µM | Cn1ncc2c1Nc1ccccc1N(C(=O)CCCCCN1CCN(Cc3cc(O)cc(O)c3)CC1)C2
6 | 0.266 µM | > 10 µM | > 10 µM | 8.2 µM | > 10 µM | 7.45 µM | COc1cc(CN2CCN(CCCCCC(=O)N3Cc4cnn(C)c4Nc4ccccc43)CC2)cc(OC)c1
7 | 0.13 µM | > 10 µM | > 10 µM | > 10 µM | > 10 µM | > 10 µM | Cn1ncc2c1Nc1ccccc1N(C(=O)CCCCCCN1CCN(Cc3cc(O)cc(O)c3)CC1)C2
8 | 0.466 µM | > 10 µM | > 10 µM | > 10 µM | > 10 µM | > 10 µM | Cn1ncc2c1Nc1ccccc1N(C(=O)CCCCN1CCN(Cc3cc(O)cc(O)c3)CC1)C2
9 | 0.064 µM | > 10 µM | > 10 µM | 4.67 µM | > 10 µM | 8.35 µM | Cn1ncc2c1Nc1ccccc1N(C(=O)CCCCCCCN1CCN(Cc3cc(O)cc(O)c3)CC1)C2
